{
  "source": "patent US20090117593A1",
  "about": "“T. Cruzi-derived neurotrophic agents and methods of use therefor” (Tufts University, priority 2006, published 2009)",
  "assay_type_in_all_cases": "cell-based",
  "key": {"neuroblastoma N18 cells": {"tested_on": "neuroblastoma N18 cells", "assay": "Neurite outgrowth assay in N18 cells", "settings": "soluble or immobilized on plastic (500 μg/ml coating), 17 hours", "method": "96-well microtiter plates were coated overnight at 4° C. with the TS or peptides or fragments thereof, or with control proteins laminin (Ln) or bovine serum albumin (BSA) at 500 μg/ml. After removing the compounds, the plates were further incubated with 1% BSA for 1 hour at room temperature and immediately used as substratum for PC12 or N18 (Prasad, K., Biol. Rev. Camb. Philos. Soc., 66:431-451 (1991)) cells in serum-free RPMI/0.2% BSA. Neurite outgrowth was measured using a phase-contrast microscope 17 hours later."}, "PC12 cells": {"tested_on": "PC12 cells", "settings": "serum-free RPMI/0.2% BSA, collagen coated dishes, 16-17 hours"}, "[1]": {"tested_on": "PC12 cells or Schwann cells", "assay": "Inhibition of apoptosis of PC12 cells or Schwann cells by synthetic peptides"}, "PC12^TrkA cells [2]": {"tested_on": "PC12^TrkA cells", "assay": "Survival of PC12^TrkA cells in serum-free medium (MTT, DAPI)", "settings": "peptides 10 μM, PDNF 500 ng/ml, NGF 30 ng/ml; 48 hours to 5 days", "method": "(§1) PC12^nnr5 and PC12^TrkA cells were grown in RPMI with 10% FCS and 5% horse serum as described earlier (Green et al., J. Cell Biol. 102:830-843 (1986); Chuenkova and Pereira, Mol. Biol. Cell 11: 1487-1498 (2000)). Two approaches were used to study neurite extension: 1) Plating cells (1×10^5 cells/ml) on plastic wells (LABTECH 16-well slides, Nalge Nunc International, Naperville, Ill.) coated with synthetic peptides (100 μg/ml water, 4° C., overnight) or rat tail collagen (1 mg/ml PBS, 4° C., overnight). 2) Adding peptides in solution to cells plated on uncoated substratum. Cells were grown in 1% FCS-containing RPMI for 72 hours, and reacted with 0.5 mg/ml MTT (3-[4,5-dimethylthiazol-2-yl]-2,5-diphenyltetrazolium bromide) (SIGMA, St. Louis, Mo.) in serum-free medium for 1 hour at 37° C. Light microscopy was used to visualize viable cells (i.e., containing reduced insoluble formazan) with or without extended neurites (>5 μm in length). Cell viability was also determined using the CELLTITER 96 assay (Promega, Madison, Wis.) as follows: Cells, plated at 2×10^5/ml, were treated with peptides in serum-free medium for different times and exposed to CELLTITER 96 Aqueous One Solution for 1 hour at 37° C. 2) Apoptotic cells were identified by staining with DAPI (250 ng/ml) (SIGMA) 48 hours after cells were exposed to serum-free medium with or without additives in solution, as described earlier (Chuenkova and Pereira, Mol. Biol. Cell 11:1487-1498 (2000)). […]"}, "PC12^TrkA cells [3]": {"tested_on": "PC12^TrkA cells", "assay": "Neurite extension of PC12^TrkA cells", "settings": "coated substratum or in medium (10 μM), 1% FCS", "method": "as §1, with “C.” for “C. 2) Apoptotic cells were identified by staining with DAPI (250 ng/ml) (SIGMA) 48 hours after cells were exposed to serum-free medium with or without additives in solution, as described earlier (Chuenkova and Pereira, Mol. Biol. Cell 11:1487-1498 (2000)).”"}, "Erk1/2": {"tested_on": "Erk1/2", "assay": "Erk1/2 phosphorylation in PC12 cells", "settings": "5 minutes; control peptides 10 μM", "method": "Activation state of TrkA, Erk1/2 and Akt kinases and transcription factor CREB was analyzed by assessing phosphorylation by Western blot with appropriate phospho-specific antibodies. For this, cells were plated in complete medium at a density of 3×10^5 cells/ml overnight on 6-well plates (BECTON DICKINSON LABWARE, Franklin Lakes, N.J.). The medium was changed to serum-free medium and the cells cultured for an additional 24 hours to reduce background phosphorylation. […] Antibody reaction was visualized by horseradish peroxidase (HRP)-conjugated secondary antibody and enhanced chemiluminescence kit (ECL). Some blots were stripped in appropriate buffer (50 mM Tris HCl, pH 7.8, 2% SDS, 1% β-mercaptoethanol) at 50° C. for 60 minutes and re-probed with p42/44MAPK, Akt or CREB antibody to ensure equal loading of proteins. For immunoprecipitation experiments, cell lysates were pre-adsorbed on protein G-Sepharose for 1 hour at 4° C. and after brief centrifugation supernatants were incubated with anti-TrkA antibody for 24 hours at 4° C. with gentle rocking. Formed immunocomplexes were captured on protein G-Sepharose, eluted with SDS-PAGE sample buffer and analyzed by immunoblotting with antibody against phospho-TrkA receptor."}},
  "note": "“Also recorded” adds a separate entry of the source.",
  "data": [
    {"substance": "laminin [reference compound]", "values": [
      {"measurement": "neurite outgrowth in N18 cells", "setting": "neuroblastoma N18 cells", "result": "induced"}
    ]},
    {"substance": "DSSAHGTPSTPA [peptide TR]", "values": [
      {"measurement": "neurite outgrowth in PC12 cells", "setting": "PC12 cells", "result": "did not induce neurite outgrowth; also recorded: did not promote neurite outgrowth"},
      {"measurement": "suppression of apoptosis of PC12 cells or Schwann cells", "setting": "[1]", "result": "did not inhibit apoptosis"},
      {"measurement": "survival of PC12^TrkA cells in serum-free medium", "setting": "PC12^TrkA cells [2]", "result": "inactive; also recorded: did not significantly promoted cell survival; also recorded: did not support survival and neurite extension"},
      {"measurement": "neurite extension / differentiation of PC12^TrkA cells", "setting": "PC12^TrkA cells [3]", "result": "did not spread and extend neurites; also recorded: did not support survival and neurite extension"},
      {"measurement": "Erk1/2 phosphorylation in PC12 cells", "setting": "Erk1/2", "result": "did not activate Erk"}
    ]}
  ]
}
